Experimental data published in ChEMBL document CHEMBL1201862, “PubChem BioAssay data set” (2004).
Activity calls are given as the source filed them.

What was measured:
[1] = target: Nuclear receptor subfamily 5 group A member 2 (Homo sapiens, UniProt O00482); format: functional, cell-based;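 note: HEK293T cells transfected with LRH-1 and a StAR promoter luciferase reporter; potency for inhibitors that lower LRH-1 driven reporter light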
[2] = NIH3T3 cell viability loss – ATP luminescence, mouse fibroblasts, counter-screen, dose response (AID 2010); format: functional, cell-based;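 note: cells exposed to compound for about 90 hours before reading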
Steroidogenic factor 1 = Steroidogenic factor 1 (Homo sapiens, UniProt Q13285); experiment: Counterscreen for inverse agonists of the liver receptor homolog-1 (LRH-1; NR5A2): Luminescence-based cell-based high throughput dose response assay to identify inverse agonists of the Steroidogenic Factor 1 Nuclear Receptor (SF1; NR5A1).; format: functional
Chain of Steroidogenic factor 1 (Q13285 whole entry): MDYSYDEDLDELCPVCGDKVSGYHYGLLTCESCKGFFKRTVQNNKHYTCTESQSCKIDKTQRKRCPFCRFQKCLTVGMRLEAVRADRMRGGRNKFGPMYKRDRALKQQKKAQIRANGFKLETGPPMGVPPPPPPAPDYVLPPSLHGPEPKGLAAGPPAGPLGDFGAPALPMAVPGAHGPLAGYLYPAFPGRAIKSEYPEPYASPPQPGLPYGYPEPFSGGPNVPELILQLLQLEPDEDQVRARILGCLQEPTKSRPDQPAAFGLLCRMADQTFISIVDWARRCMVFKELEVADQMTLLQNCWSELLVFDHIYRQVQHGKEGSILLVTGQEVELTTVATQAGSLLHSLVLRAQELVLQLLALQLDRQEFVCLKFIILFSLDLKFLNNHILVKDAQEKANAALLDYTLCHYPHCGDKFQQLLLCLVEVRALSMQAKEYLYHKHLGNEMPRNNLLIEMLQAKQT

[3] = Trypanosoma cruzi growth suppression in host cells – NIH3T3 host cells, beta-gal luminescence, confirmation (AID 2044); format: functional, cell-based;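 note: intracellular parasites grown in NIH/3T3 mouse fibroblasts as host cells; luminescent beta-galactosidase reporter signal from transgenic T. cruzi replicating inside host cells; inhibitors lower the luminescence signal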
[4] = nonselective StAR promoter luciferase inhibitors – cell-based, luminescence, luciferase reporter, counter-screen for LRH-1 inverse agonist project, dose response (AID 651969); format: functional
Beta-lactamase [5] = target: T1, Beta-lactamase (Pseudomonas aeruginosa, UniProt Q79MP6); experiment: inhibition of IMP-1 beta-lactamase activity – biochemical, epi-absorbance, selectivity assay for VIM-2 inhibitor project, dose response (AID 1920)
T1 sequence (Q79MP6 whole entry): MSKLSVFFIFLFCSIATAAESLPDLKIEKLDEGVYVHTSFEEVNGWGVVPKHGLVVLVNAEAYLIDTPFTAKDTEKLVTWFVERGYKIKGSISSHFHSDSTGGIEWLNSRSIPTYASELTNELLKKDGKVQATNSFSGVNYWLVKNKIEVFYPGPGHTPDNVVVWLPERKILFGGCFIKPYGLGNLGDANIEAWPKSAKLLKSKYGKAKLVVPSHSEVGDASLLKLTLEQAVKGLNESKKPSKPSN

Beta-lactamase [6] = target: Beta-lactamase (Salmonella choleraesuis (strain SC-B67), UniProt Q5J463); experiment: Epi-absorbance-based counterscreen for selective VIM-2 inhibitors: dose response biochemical high throughput screening assay to identify inhibitors of TEM-1 serine-beta-lactamase.
Chain of Beta-lactamase (Salmonella choleraesuis (strain SC-B67), UniProt Q5J463) (Q5J463 whole entry): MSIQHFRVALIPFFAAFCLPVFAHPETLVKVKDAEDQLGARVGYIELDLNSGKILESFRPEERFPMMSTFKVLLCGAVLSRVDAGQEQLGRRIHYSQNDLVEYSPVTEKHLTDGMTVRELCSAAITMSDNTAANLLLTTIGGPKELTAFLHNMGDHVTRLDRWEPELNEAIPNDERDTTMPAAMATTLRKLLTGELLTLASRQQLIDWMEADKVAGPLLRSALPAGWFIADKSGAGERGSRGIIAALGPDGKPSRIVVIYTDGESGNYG

Beta-lactamase [7] = target: T1, Beta-lactamase; experiment: […] counterscreen for selective VIM-2 inhibitors: dose response biochemical high throughput screening assay to identify inhibitors of IMP-1 metallo-beta-lactamase.
[8] = target: Dual specificity tyrosine-phosphorylation-regulated kinase 1A (Rattus norvegicus, UniProt Q63470); format: biochemical, Homo sapiens
[9] = target: T2, Methionyl-tRNA synthetase, putative (Trypanosoma brucei brucei, UniProt Q38C91); format: functional, Trypanosoma brucei brucei strain 927/4 GUTat10.1
T2 sequence (Q38C91 whole entry): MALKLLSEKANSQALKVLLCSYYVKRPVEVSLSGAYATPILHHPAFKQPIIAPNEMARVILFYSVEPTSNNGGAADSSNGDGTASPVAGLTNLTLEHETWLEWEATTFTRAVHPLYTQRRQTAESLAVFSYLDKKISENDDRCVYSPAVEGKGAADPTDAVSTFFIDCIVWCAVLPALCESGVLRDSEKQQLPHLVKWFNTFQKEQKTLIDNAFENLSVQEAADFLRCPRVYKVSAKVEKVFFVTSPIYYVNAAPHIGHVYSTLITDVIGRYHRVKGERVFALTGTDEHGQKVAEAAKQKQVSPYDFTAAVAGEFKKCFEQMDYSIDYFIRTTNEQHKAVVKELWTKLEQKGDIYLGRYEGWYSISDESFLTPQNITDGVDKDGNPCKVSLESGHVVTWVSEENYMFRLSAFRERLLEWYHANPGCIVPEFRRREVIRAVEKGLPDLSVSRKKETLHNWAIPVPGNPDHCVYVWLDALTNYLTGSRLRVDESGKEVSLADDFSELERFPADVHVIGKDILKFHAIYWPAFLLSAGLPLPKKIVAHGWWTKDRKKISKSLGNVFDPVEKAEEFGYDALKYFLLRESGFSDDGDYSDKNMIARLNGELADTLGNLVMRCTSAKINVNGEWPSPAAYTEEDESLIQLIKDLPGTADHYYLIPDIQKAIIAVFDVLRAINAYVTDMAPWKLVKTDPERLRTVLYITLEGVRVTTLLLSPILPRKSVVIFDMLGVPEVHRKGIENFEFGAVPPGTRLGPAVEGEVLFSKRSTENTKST

[10] = Counterscreen for inhibitors of Trypanosoma brucei methionyl tRNA synthetase (MetRS): Luminescence-based cell-based high throughput dose response assay to identify compounds that are cytotoxic to Jurkat human T lymphocyte cells.; format: functional
[11] = target: T2, Methionyl-tRNA synthetase, putative; format: functional, Trypanosoma brucei brucei strain 927/4 GUTat10.1; remark: listed apart in the source
[12] = target: 26S proteasome non-ATPase regulatory subunit 14 (Homo sapiens, UniProt O00487); experiment: inhibition of proteasome subunit RPN11 – biochemical, fluorescence polarization, uHTS hits, confirmation (AID 602368); format: functional
Chain of 26S proteasome non-ATPase regulatory subunit 14 (O00487 whole entry): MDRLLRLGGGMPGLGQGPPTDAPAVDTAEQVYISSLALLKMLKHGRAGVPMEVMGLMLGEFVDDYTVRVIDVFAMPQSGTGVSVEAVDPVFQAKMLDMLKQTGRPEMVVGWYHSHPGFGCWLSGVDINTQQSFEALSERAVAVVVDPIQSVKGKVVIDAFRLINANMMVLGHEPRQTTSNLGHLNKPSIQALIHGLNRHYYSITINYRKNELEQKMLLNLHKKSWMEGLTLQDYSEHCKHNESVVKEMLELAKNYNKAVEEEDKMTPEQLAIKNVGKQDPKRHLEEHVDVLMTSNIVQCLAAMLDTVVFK

[13] = loss of viability in HepG2 cells – cell-based, CellTiter-Glo, cherry-picked, cytotoxicity control for Shn3 inhibitor project, dose response (AID 624134); format: functional
[14] = non-specific 3'UTR reporter inhibition in Clone20-Shn3RL – cell-based, Renilla luciferase, cherry-picked, counter-screen for Shn3 inhibitor project, dose response (AID 624133); format: functional
[15] = reduction of Shn3 3'UTR-driven luciferase in osteoblasts – cell-based, Clone20 osteoblasts, firefly luciferase, cherry-picked, dose response (AID 624132); format: functional;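 note: firefly luciferase luminescence from reporter carrying the Shn3 3'UTR in osteoblasts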
Prothrombin = Prothrombin (Bos taurus, UniProt P00735); experiment: thrombin protease inhibitors – biochemical, fluorescence polarization, uHTS hits, dose response (AID 602369); format: functional
[16] = target: 72 kDa type IV collagenase (Homo sapiens, UniProt P08253); experiment: Dose Response validation of uHTS RPN11 inhibitor hits using a MMP-2 Fluorescence assay.; format: functional
Chain of 72 kDa type IV collagenase (P08253 whole entry, the tested form may be a part): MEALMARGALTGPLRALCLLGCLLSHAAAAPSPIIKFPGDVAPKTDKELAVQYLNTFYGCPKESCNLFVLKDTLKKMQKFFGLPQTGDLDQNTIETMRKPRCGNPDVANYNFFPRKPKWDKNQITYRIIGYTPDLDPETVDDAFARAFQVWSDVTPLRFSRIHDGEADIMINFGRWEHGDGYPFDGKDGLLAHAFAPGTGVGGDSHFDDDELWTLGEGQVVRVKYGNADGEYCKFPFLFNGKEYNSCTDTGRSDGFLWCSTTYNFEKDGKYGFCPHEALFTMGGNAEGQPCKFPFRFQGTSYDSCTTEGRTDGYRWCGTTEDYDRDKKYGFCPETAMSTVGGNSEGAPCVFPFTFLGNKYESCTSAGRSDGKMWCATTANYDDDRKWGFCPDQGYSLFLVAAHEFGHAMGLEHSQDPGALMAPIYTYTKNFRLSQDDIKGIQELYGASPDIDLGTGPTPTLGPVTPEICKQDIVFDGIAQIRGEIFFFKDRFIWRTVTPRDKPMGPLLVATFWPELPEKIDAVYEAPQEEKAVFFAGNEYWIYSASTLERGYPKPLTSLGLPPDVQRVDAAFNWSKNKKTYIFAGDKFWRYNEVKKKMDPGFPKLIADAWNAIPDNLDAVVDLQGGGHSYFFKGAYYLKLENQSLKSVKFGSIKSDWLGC

[17] = target: T3, Sentrin-specific protease 1 (Homo sapiens, UniProt Q9P0U3); experiment: Dose response confirmation of small molecule inhibitors of the catalytic domain of the SUMO protease, SENP1 in a FRET assay.; format: functional; details: read-out: IC50_Mean
T3 sequence (Q9P0U3 whole entry): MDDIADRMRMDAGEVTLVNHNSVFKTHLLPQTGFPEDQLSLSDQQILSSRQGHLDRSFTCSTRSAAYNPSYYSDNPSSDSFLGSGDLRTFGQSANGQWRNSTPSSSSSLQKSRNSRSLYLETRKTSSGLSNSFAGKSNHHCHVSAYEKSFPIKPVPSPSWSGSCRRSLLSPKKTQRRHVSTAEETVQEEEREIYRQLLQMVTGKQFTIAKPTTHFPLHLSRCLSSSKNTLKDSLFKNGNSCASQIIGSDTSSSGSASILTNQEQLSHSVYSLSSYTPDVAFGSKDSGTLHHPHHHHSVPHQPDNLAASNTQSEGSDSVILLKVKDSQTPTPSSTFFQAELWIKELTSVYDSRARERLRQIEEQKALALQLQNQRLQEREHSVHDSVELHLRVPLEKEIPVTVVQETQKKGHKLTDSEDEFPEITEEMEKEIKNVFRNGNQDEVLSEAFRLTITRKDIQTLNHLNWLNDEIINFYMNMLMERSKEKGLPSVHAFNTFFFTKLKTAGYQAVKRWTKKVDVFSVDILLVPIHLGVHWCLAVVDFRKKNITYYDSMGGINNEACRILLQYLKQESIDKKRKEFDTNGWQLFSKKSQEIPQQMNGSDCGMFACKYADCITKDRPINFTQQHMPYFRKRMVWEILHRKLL

[18] = target: T3, Sentrin-specific protease 1; experiment: SENP1 catalytic domain blockers, concentration series – biochemical, kinetic FRET, dose response (AID 651697); format: functional; details: read-out: IC50_Mean
[19] = target: Disintegrin and metalloproteinase domain-containing protein 17 (Homo sapiens, UniProt P78536); experiment: inhibition of ADAM17 substrate cleavage – biochemical, quenched FRET substrate, counter-screen for ADAM10 exosite inhibitor project, dose response (AID 743253)
Chain of Disintegrin and metalloproteinase domain-containing protein 17 (P78536 whole entry, the tested form may be a part): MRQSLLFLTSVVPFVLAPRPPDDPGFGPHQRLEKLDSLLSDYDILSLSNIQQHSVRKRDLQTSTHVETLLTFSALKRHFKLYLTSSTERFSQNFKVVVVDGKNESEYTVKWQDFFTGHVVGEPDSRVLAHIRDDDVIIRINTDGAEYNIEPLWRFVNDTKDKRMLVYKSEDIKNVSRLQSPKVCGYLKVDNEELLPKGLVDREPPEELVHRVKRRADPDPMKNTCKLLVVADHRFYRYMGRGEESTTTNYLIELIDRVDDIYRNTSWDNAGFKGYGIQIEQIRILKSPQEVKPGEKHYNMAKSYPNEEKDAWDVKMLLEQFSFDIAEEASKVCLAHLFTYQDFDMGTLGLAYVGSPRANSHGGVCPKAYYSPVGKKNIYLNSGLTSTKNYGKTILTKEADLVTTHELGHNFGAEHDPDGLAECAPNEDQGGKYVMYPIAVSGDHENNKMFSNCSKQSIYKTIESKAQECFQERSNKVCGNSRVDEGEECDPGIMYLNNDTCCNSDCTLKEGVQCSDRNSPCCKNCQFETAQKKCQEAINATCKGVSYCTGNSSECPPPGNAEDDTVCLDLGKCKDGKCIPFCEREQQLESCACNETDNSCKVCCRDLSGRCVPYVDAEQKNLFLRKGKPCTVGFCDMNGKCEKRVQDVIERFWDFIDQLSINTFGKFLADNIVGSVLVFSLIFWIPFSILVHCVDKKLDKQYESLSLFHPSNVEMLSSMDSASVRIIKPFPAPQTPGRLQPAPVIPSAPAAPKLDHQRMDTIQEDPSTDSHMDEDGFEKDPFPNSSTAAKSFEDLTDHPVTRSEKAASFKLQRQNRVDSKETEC

[20] = potency of ADAM10 substrate cleavage blockers – biochemical, QFRET, dose response (AID 743254);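 note: ADAM10 enzyme with the DM2 quenched FRET peptide as substrate; EDANS fluorescence gain as the protease cuts the substrate; inhibitor potency against ADAM10 proteolytic activity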
Albumin = Albumin (Bos taurus, UniProt P02769); experiment: Counterscreen for inhibitors of T-cell receptor (TCR)-CD3 interaction: Fluorescence-based biochemical high throughput dose response assay to identify inhibitors of T-cell receptor (TCR)-CD3 interaction using a TAMRA-labeled BSA probe.; format: functional
Chain of Albumin (P02769 whole entry): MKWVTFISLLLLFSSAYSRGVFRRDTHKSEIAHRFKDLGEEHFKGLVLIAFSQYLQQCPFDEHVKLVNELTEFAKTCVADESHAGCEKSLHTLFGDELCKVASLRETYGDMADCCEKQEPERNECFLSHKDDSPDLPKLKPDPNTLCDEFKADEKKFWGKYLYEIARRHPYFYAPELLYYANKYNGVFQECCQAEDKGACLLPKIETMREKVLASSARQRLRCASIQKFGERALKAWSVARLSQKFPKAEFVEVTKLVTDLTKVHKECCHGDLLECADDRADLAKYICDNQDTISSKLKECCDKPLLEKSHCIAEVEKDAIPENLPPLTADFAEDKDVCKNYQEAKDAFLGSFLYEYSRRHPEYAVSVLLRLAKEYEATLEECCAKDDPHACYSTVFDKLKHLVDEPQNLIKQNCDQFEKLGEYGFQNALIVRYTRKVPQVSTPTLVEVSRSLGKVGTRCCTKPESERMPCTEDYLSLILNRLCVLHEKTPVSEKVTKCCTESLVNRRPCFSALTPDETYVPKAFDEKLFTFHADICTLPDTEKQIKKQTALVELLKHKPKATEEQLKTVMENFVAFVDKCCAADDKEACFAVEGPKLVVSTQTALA

Chain of Nuclear receptor subfamily 5 group A member 2 (O00482 whole entry): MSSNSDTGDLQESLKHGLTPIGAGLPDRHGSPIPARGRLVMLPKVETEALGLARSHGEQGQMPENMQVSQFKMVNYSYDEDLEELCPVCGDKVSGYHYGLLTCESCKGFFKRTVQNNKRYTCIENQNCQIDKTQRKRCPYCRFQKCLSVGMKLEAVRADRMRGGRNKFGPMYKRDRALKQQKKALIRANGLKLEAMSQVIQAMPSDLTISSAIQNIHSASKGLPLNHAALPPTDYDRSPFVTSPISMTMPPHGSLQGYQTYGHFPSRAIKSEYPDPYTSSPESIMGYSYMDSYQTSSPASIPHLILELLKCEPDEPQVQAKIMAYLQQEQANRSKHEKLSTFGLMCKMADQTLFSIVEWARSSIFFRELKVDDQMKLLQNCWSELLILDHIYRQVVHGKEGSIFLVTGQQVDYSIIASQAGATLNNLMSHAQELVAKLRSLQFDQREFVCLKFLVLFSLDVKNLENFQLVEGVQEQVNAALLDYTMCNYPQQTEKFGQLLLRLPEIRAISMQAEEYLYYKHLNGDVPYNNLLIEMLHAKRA

In the case of `CN1CCN(c2ccc(S(=O)(=O)N3CCCCC3)cc2NC(=O)COc2ccc([N+](=O)[O-])cc2)CC1`, the IC50 [1] is reported as 35.9 µM (inactive), the EC50 [2] is reported as > 30 µM (not active) and the IC50 (Steroidogenic factor 1) is reported as 1.48 µM (active). For the same molecule, the EC50 [3] was 0.353 µM (active) and the IC50 [4] was 35.9 µM (inactive).
For `O=C(O)c1[nH]c2ccc(Cl)cc2c1CCN1C(=O)c2ccccc2C1=O`, the IC50 (Beta-lactamase [5]) was > 59.6 µM (inactive), the IC50 (Beta-lactamase [6]) was > 59.6 µM (inactive) and the IC50 (Beta-lactamase [7]) was > 59.6 µM (inactive). The AC50 [8] was 13.6 µM (active).
For `Clc1cccc(CNc2nc(-c3cccnc3)nc3ccccc23)c1`, the IC50 [9] was 32 µM (inactive), the EC50 [2] was > 60 µM (not active) and the EC50 [3] was 0.952 µM (active). For the same molecule, the IC50 [10] was 41.9 µM (inactive) and the IC50 [11] was 16.4 µM (inactive).
With `COc1ccc(-c2cc(C(F)(F)F)nc(N3CCN(C)CC3)n2)cc1` the IC50 (Beta-lactamase [5]) was > 59.6 µM (inactive), the IC50 (Beta-lactamase [6]) was > 59.6 µM (inactive) and the IC50 (Beta-lactamase [7]) was > 59.6 µM (inactive).
With `CC1CCCC(C)N1C(=O)CSc1nnc(NC(=O)c2cccs2)s1` (centres undefined) the IC50 (Beta-lactamase [5]) was > 59.6 µM (inactive), the IC50 (Beta-lactamase [6]) was > 59.6 µM (inactive) and the IC50 (Beta-lactamase [7]) was > 59.6 µM (inactive).
In the case of `CCc1ccc(NC(=O)C2CCN(S(=O)(=O)c3ccc4c(c3)NC(=O)C(C)S4)CC2)cc1` (centres undefined), the IC50 [12] is reported as 31.8 µM (active), the AC50 [13] is reported as 6.54 µM (active) and the AC50 [14] is reported as 6 µM (active). For the same molecule, the AC50 [15] was 7.08 µM (active), the IC50 (Prothrombin) was 42 µM (active) and the IC50 [16] was > 100 µM (inactive).
In the case of `Cc1cc(NC(=O)CSc2nc3ccccc3cc2C#N)no1`, the IC50 [17] is reported as 11 µM (active) and the IC50 [18] is reported as 19.3 µM (active).
In the case of `COC(=O)c1ccc(-c2cc3onc(-c4ccccc4)c3c(=O)n2C)cc1`, the IC50 [19] is reported as > 69.5 µM (inactive) and the IC50 [20] is reported as > 69.5 µM (inactive).
In the case of `COc1ccc(C(=O)NNC(=S)NC(=O)c2cccnc2)cc1`, the IC50 (Albumin) is reported as > 94.1 µM (inactive).
In the case of `CCCc1cc(=O)oc2cc(OCC(=O)NCc3ccccn3)ccc12`, the IC50 [1] is reported as 35.9 µM (inactive), the IC50 (Steroidogenic factor 1) is reported as 1.97 µM (active) and the IC50 [4] is reported as 35.9 µM (inactive).
